Measurements taken from patent US20010053797A1 (priority 1998, published 2001).
Entries after “also recorded” stand apart in the source; their conditions may differ. Where two headings read alike, the source gives them in different places.

Experiments:
[1] = system: murine cortical cell cultures (neurons), NMDA receptor; test: NMDA neurotoxicity in murine cortical cell cultures, medium LDH; assay type: cell-based, Swiss Webster mice; details: for effect on potentiation of NMDA neurotoxicity by mercaptoethanol: NMDA plus 1 mM mercaptoethanol plus equimolar compound; for effect on NMDA neurotoxicity (neuronal death, medium LDH): compound added with low micromolar NMDA, 20-25 h; for effect on potentiation of NMDA neurotoxicity by GSH: NMDA plus GSH plus compound
Procedure: Cultures were incubated in 5% CO2 at 37° C.
Experiments were conducted at 13-15 days in vitro.

native NMDA receptor = biological target: T1, native NMDA receptor (Rattus norvegicus, UniProt P35439); details: cited from earlier work
T1 construct: host or cells: cultured forebrain, cortical or retinal neurons (endogenous receptor)

[2] = system: murine cortical cell cultures; details: millimolar concentrations, 20-25 h, 0 μM NMDA
Procedure: (§1) After halothane anesthesia and cervical dislocation, cortical hemispheres were removed and incubated in 0.075% (wt/vol) acetylated trypsin (Sigma T-6763) for 1 h at 37° C. Tissue was dissociated by multiple passages through a narrow bore (flamed) Pasteur pipette, and the cell suspension was plated on confluent glial cultures at a density of 2.25-2.5 hemispheres per 24 well plate.
(§2) Experiments were conducted at 13-15 days in vitro. Cultures were exposed to excitatory amino acids in serum-free MEM containing 10 mM glucose.

[3] = system: NMDA receptor-mediated neurotoxicity; details: cited from earlier work
[4] = system: cortical neurons and glia; test: Chemical hypoxia (azide) and glucose deprivation in cortical cell cultures, medium LDH; assay type: cell-based, Swiss Webster mice; details: for effect on azide neurotoxicity in glucose-free buffer (neuronal death): 3 mM azide 30 min with compound, LDH 21-25 h later; for effect on potentiation of azide toxicity/glucose deprivation by GSH: 3 mM azide plus 100 μM GSH plus compound; for effect on potentiation of azide toxicity/glucose deprivation by GSH / effect on potentiation of azide toxicity by mercaptoethanol: 30 min; for effect on potentiation of azide toxicity by mercaptoethanol: 3 mM azide plus 100 μM mercaptoethanol plus compound
Procedure: Primary cultures containing both cortical neurons and glia were prepared from gravid Swiss Webster mice as previously described. (Regan , R. F. and Choi, D. W., The effect of NMDA, AMPA/kainate, and calcium channel antagonists on traumatic cortical neuronal injury in culture, Brain Res, 633: 236-242, 1994). Plating medium consisted of Eagle's minimal essential medium (MEM), 5% equine serum, 5% fetal bovine serum, 2 mM glutamine, and 23 mM glucose. Cultures were incubated in 5% CO2 at 37° C. Two-thirds of the culture medium was exchanged twice weekly with MEM containing 10% equine serum, 2 mM glutamine, and 23 mM glucose. Glial cell division was inhibited at 4-7 days in vitro with 10^−5 M cytosine arabinoside.
Chemical hypoxia was induced with 3 mM azide, which unlike cyanide is not volatile and has little effect on copper-zinc and manganese superoxide dismutases at low millimolar concentrations. (Misra, H. P. and Fridovich, I., Inhibition of superoxide dismutases by azide, Arch Biochem Biophys 189: 317-322, 1978). Experiments were conducted at 13-16 days in vitro in a glucose-free buffer containing 116 mM NaCl, 5.4 mM KCl, 1.8 mM CaCl2, 1 mM NaH2PO4, 26.2 mM NaHCO3, 0.8 mM MgSO4, and amino acids (MEM amino acids, Sigma Chemical Co., St. Louis, Mo., U.S.A.). After incubation for 30-90 min at 37° C. in 5% CO2, cultures were washed into MEM containing 10 mM glucose and were returned to the incubator.
Cell death was estimated 21-25 h after azide exposure by inspection under phase-contrast microscopy, and was quantified by assaying lactate dehydrogenase (LDH) activity in the medium, as previously described. (Regan, R. F. and Panter, S. S., Traumatic neuronal injury in cortical cell culture is attenuated by 21-aminosteroids, Brain Res, 682: 144-150, 1995). Medium LDH in this culture system is an accurate marker of neuronal death that correlates well with cell counts. (Koh, J. Y. and Choi, D. W., Vulnerability of cultured cortical neurons to damage by excitotoxins: Differential susceptibility of neurons containing NADPH-diaphorase, J Neurosci 8: 2153-2163, 1988). […] (Koh, J. Y. and Choi, D. W., 1988). The LDH activity in the medium of sister cultures exposed to sham wash alone was subtracted from all values to obtain the LDH signal associated specifically with neurotoxin exposure.
Data were analyzed by one-way analysis of variance. Differences between groups and a single mean were assessed with the Dunnett multiple comparisons test; when groups were compared to more than one mean, the Tukey-Kramer post hoc test was used.

GSH binding sites = details: listed as S-hexylglutathione; cited from earlier work
cortical cell culture = details: low micromolar concentrations; cited from earlier work
[5] = system: cultured cerebellar granule cells; details: cited from earlier work
[6] = system: murine cortical cell cultures (neurons), AMPA and kainate receptors; details: listed as reduced glutathione
Procedure: as §1, §2
Since astrocytes are not vulnerable to excitotoxic injury in this culture system (Choi D. W., Maulucci-Gedde M. and Kriegstein A. R. Glutamate neurotoxicity in cortical cell culture. J Neurosci 7: 357-368, 1987), the contribution of astrocytic LDH to the LDH signal is negligible.
Differences between groups were assessed with the Tukey-Kramer or Dunnett post hoc tests.

[7] = system: NR1-NR2B, -NR2C, or -NR2D receptors; details: millimolar concentrations of GSH; cited from earlier work
[8] = system: cortical neurons and glia; details: 10-100 μM, 30 min in MEM without azide

Compound | effect on potentiation of NMDA neurotoxicity by (sulfhydryl) reducing agents [1] | effect on potentiation of NMDA neurotoxicity by mercaptoethanol [1] | effect on NMDA neurotoxicity (neuronal death, medium LDH) [1] | effect on native NMDA receptor responses (native NMDA receptor) | effect on NMDA neurotoxicity [3] | effect on azide neurotoxicity in glucose-free buffer (neuronal death) [4] | effect on potentiation of azide toxicity/glucose deprivation by GSH [4] | effect on potentiation of azide toxicity by mercaptoethanol [4] | neuroprotection against azide plus GSH or mercaptoethanol ([4]; compound at 1-3 mM) | effect on potentiation of NMDA neurotoxicity by GSH [1] | other results
oxidized glutathione [GSSG] | antagonized | completely blocked; also recorded: blocked the effect of mercaptoethanol | no significant effect; also recorded: did not attenuate NMDA neurotoxicity per se | inhibitory | attenuated NMDA neurotoxicity | ineffective; also recorded: not increased | most neurons have survived; also recorded: attenuates | attenuates | robust effect |  | effect on potentiation of NMDA neurotoxicity by mercaptoethanol ([1]; listed as oxidized glutathione): blocked; toxicity of compound alone [2]: nontoxic; effect on neuronal death induced by prolonged azide exposure ([4]; azide 60-90 min in the absence of GSH): no significant effect; neuroprotection against azide plus GSH or mercaptoethanol ([4]; equimolar compound (100 μM)): weak and somewhat variable neuroprotection
CCCCCCSC[C@H](NC(=O)CC[C@H](N)C(=O)O)C(=O)NCC(=O)O [SHG, S-hexylglutathione] | antagonized | blocked the effect of mercaptoethanol | no significant effect; also recorded: did not attenuate NMDA neurotoxicity per se |  |  | ineffective | attenuates | attenuates | decreasing neuronal death moderately | completely blocked | effect on glutathione binding (GSH binding sites): displace glutathione binding; also recorded: selectively inhibited; effect on potentiation of NMDA neurotoxicity by mercaptoethanol ([1]; listed as S-hexylglutathione): completely blocked; effect on potentiation of NMDA neurotoxicity by GSH ([1]; listed as S-hexylglutathione): completely blocked; also recorded: antagonized the effect of GSH; effect on NMDA neurotoxicity (neuronal death, medium LDH) ([1]; listed as S-hexylglutathione): inactive per se; effect on potentiation of NMDA neurotoxicity by (sulfhydryl) reducing agents ([1]; listed as S-hexylglutathione): blocked the potentiation; effect on azide neurotoxicity in glucose-free buffer (neuronal death) ([4]; listed as S-hexylglutathione): not increased
CCN(CC)c1ccc(N(CC)CC)c(N2CCN(CC(=O)[C@H]3[C@H](C)C[C@H]4[C@@H]5CCC6=CC(=O)C=C[C@]6(C)C5=CC[C@@]43C)CC2)n1.Cl [U74500A] |  |  |  |  |  |  |  |  |  | GSH also potentiated injury in the presence | effect on hemoglobin toxicity (cortical cell culture): blocks hemoglobin toxicity
N[C@@H](CCC(=O)N[C@@H](CS)C(=O)NCC(=O)O)C(=O)O [GSH, glutathione] |  | did not further increase neuronal death; also recorded: tended to inhibit the effect of mercaptoethanol; also recorded: did not further enhance NMDA neurotoxicity | selectively potentiates NMDA neurotoxicity; also recorded: markedly potentiated; also recorded: specifically potentiated NMDA neurotoxicity; also recorded: selectively potentiate | no effect | attenuated NMDA neurotoxicity |  |  |  |  |  | LDH release ([1]; 8 μM NMDA plus GSH, scaled to 300 μM NMDA (=100)): 61.09±3.83%; effect on neuronal death at high NMDA concentration ([1]; 24 μM NMDA): not altered; effect on potentiation of NMDA neurotoxicity by mercaptoethanol ([1]; listed as reduced glutathione): did not further increase NMDA-induced neuronal death; effect on NMDA neurotoxicity (neuronal death, medium LDH) ([1]; listed as glutathione): marked potentiation; effect on NMDA neurotoxicity (neuronal death, medium LDH) ([1]; listed as reduced glutathione): markedly enhanced; also recorded: markedly enhance the vulnerability; basal 45Ca2+ influx [5]: did not alter; glutamate and NMDA-induced calcium influx [5]: increased; effect on neurotoxicity of kainic acid [6]: unaffected; effect on responses to glutamate (whole cell currents) [7]: not
OCCS [mercaptoethanol] |  |  | markedly enhanced |  |  | potentiate; also recorded: concentration-toxicity profile that was similar to GSH |  |  |  |  | toxicity of compound alone [8]: nontoxic; effect on NMDA neurotoxicity (neuronal death, medium LDH) ([1]; listed as Mercaptoethanol): increased NMDA neurotoxicity to a degree comparable to that of glutathione
